According to US6482921B1, “Uridyl peptide antibiotic (UPA) derivatives, their synthesis and use” (Essential Therapeutics, Inc., priority 1999, dated 2002):
Converted amounts (≈) assume the structure as drawn. Read-outs that look alike come from different tables or passages of the source.

How the values were obtained:
[1] = tested on: Mycobacterium tuberculosis H37Rv; assay: MIC agar dilution, M. tuberculosis H37Rv; assay type: cell-based
[2] = tested on: Pseudomonas aeruginosa PAM 1323; assay: MIC broth microdilution, P. aeruginosa PAM 1323 (medium level UPA resistance); assay type: cell-based
[3] = tested on: Pasteurella multocida pm002; assay: MIC broth microdilution, P. multocida pm002 (wild type); assay type: cell-based
[4] = tested on: Pseudomonas aeruginosa PAM 1154; assay: MIC broth microdilution, P. aeruginosa PAM 1154 (OprM::Hg); assay type: cell-based; settings: P. aeruginosa PAM 1154 OprM::Hg
Escherichia Coli MC 4100 = assay: MIC broth microdilution, E. coli MC 4100 (wild type); assay type: cell-based; settings: E. coli MC 4100
[5] = tested on: Pseudomonas aeruginosa PAM 1020; assay: MIC broth microdilution, P. aeruginosa PAM 1020 (wild type); assay type: cell-based; settings: P. aeruginosa PAM 1020
[6] = tested on: Pseudomonas aeruginosa PAM 1135; assay: MIC broth microdilution, P. aeruginosa PAM 1135 (high level UPA resistance); assay type: cell-based; settings: P. aeruginosa PAM 1135 UPA1^r
[7] = tested on: Staphylococcus aureus ATCC 29213; assay: MIC broth microdilution, S. aureus ATCC 29213 (wild type); assay type: cell-based; settings: S. aureus ATCC 29213
[8] = tested on: Staphylococcus aureus 8325-4; assay: MIC broth microdilution, S. aureus 8325-4 (wild type); assay type: cell-based; settings: S. aureus 8325-4
[9] = tested on: Escherichia Coli MC 4100 AcrAB; assay: MIC broth microdilution, E. coli MC 4100 AcrAB (ΔAcrAB); assay type: cell-based; settings: E. coli AcrAB
[10] = tested on: Escherichia Coli MC 4100 AcrAB UPA3r; assay: MIC broth microdilution, E. coli MC 4100 AcrAB UPA3r (ΔAcrAB, UPA resistant); assay type: cell-based; settings: E. coli AcrAB UPA3^r
[11] = tested on: Mycobacterium tuberculosis TN913; assay: MIC agar dilution, M. tuberculosis TN913; assay type: cell-based
[12] = tested on: Mycobacterium smegmatis ATCC 19420; assay: MIC broth microdilution, M. smegmatis ATCC 19420; settings: 72 hours at 35° C., CAMHB
[13] = tested on: Mycobacterium fortuitum ATCC 6841; assay: MIC broth microdilution, M. fortuitum ATCC 6841; settings: 72 hours at 35° C., CAMHB
[14] = agar dilution, Middlebrook 7H10 agar, four weeks at 35° C., 0, 1, 10 and 30 tested

Row | SMILES | MIC H37RV (SENSITIVE) [1] [µg/mL] | MIC (μg/ml) Broth microdilution [2] [µg/mL] | MIC (μg/ml) Broth microdilution [3] [µg/mL] | MIC (μg/ml) Broth microdilution [4] [µg/mL] | MIC (μg/ml) Broth microdilution (Escherichia Coli MC 4100) [µg/mL] | MIC (μg/ml) Broth microdilution [5] [µg/mL] | MIC (μg/ml) Broth microdilution [6] [µg/mL] | MIC (μg/ml) Broth microdilution [7] [µg/mL] | MIC (μg/ml) Broth microdilution [8] [µg/mL] | MIC (μg/ml) Broth microdilution [9] [µg/mL] | MIC (μg/ml) Broth microdilution [10] [µg/mL] | MIC TN913 (SENSITIVE) [11] [µg/mL] | MIC Broth microdilution M. smegmatis ATCC19420 [12] [µg/mL] | MIC Broth microdilution M. fortuitum ATCC 6841 [13] [µg/mL] | MIC H37RV (SENSITIVE) [1, 14] [µg/mL] | MIC TN913 (SENSITIVE) [11, 14] [µg/mL]
1 | CC(C)C[C@H](NC(=O)N[C@@H](Cc1c[nH]c2ccccc12)C(=O)O)C(=O)N[C@H](C(=O)NC[C@H]1C[C@@H](O)[C@H](n2ccc(=O)[nH]c2=O)O1)[C@H](C)N(C)C(=O)CN [Compound 109] | >30 | 128 (≈ 173 µM) | 128 (≈ 173 µM) | <1 | 128 (≈ 173 µM) | 4 (≈ 5.39 µM) | >512 | >512 | >512 | <1 | 8 (≈ 10.8 µM) | 30 (≈ 40.4 µM) |  |  |  | 
2 | CC(N)C(=O)N(C)C(C)C(NC(=O)C(Cc1ccccc1)NC(=O)NC(Cc1ccc2ccccc2c1)C(=O)O)C(=O)NCC1CC(O)C(n2ccc(=O)[nH]c2=O)O1 [Compound 133, 1-[5′-[(2S,3S)-N^3-L-Alanyl-N^2-[N-[[(1S)-1-carboxy-2-naphthalenethyl]carbamoyl]-L-phenylalanyl]-N^3-methyl-2,3-diaminobutyramido]-3′,5′-dideoxy-α-L-arabinofuranosyl]uracil] | 30 (≈ 37.5 µM) | >512 | 256 (≈ 320 µM) | 32 (≈ 40 µM) | 256 (≈ 320 µM) | 64 (≈ 79.9 µM) | >512 | 256 (≈ 320 µM) | 128 (≈ 160 µM) | <1 | 32 (≈ 40 µM) | 30 (≈ 37.5 µM) | 8 (≈ 9.99 µM) | 32 (≈ 40 µM) |  | 
3 | CC(N)C(=O)N(C)C(C)C(NC(=O)C(Cc1ccc(C(F)(F)F)cc1)NC(=O)NC(Cc1c[nH]c2ccccc12)C(=O)O)C(=O)NCC1CC(O)C(n2ccc(=O)[nH]c2=O)O1 [Compound 146, 1-[5′-[(2S,3S)-N^3-L-Alanyl-N^2-[N-[[(1S)-1-carboxy-2-indol-3-ylethyl]carbamoyl]-L-4-(trifluoromethyl)phenylalanyl]-N^3-methyl-2,3-diaminobutyramido]-3′,5′-dideoxy-α-L-arabinofuranosyl]uracil] | 10 (≈ 11.7 µM) | >512 | 64 (≈ 74.6 µM) | 32 (≈ 37.3 µM) | 512 (≈ 597 µM) | 256 (≈ 298 µM) | >512 | 512 (≈ 597 µM) | 256 (≈ 298 µM) | 2 (≈ 2.33 µM) | 64 (≈ 74.6 µM) | 10 (≈ 11.7 µM) |  |  |  | 
4 | CC(C(NC(=O)C(Cc1ccccc1)NC(=O)NC(Cc1c[nH]c2ccccc12)C(=O)O)C(=O)NCC1CC(O)C(n2ccc(=O)[nH]c2=O)O1)N(C)C(=O)C(N)Cc1ccccc1 [Compound 156, 1-[5′-[(2S,3S)-N^2-[N-[[(1S)-1-Carboxy-2-indol-3-ylethyl]carbamoyl]-L-phenylalanyl]-N^3-L-phenylalanyl-N^3-methyl-2,3-diaminobutyramido]-3′,5′-dideoxy-α-L-arabinofuranosyl]uracil] |  | 256 (≈ 296 µM) | 256 (≈ 296 µM) | 32 (≈ 37 µM) | 512 (≈ 591 µM) | 32 (≈ 37 µM) | 256 (≈ 296 µM) | >512 | >512 | 4 (≈ 4.62 µM) | 512 (≈ 591 µM) |  | 16 (≈ 18.5 µM) | 256 (≈ 296 µM) |  | 
5 | CC(N)C(=O)N(C)C(C)C(NC(=O)C(Cc1ccc(F)cc1)NC(=O)NC(Cc1ccc(O)cc1)C(=O)O)C(=O)NCC1CC(O)C(n2ccc(=O)[nH]c2=O)O1 [Compound 157, 1-[5′-[(2S,3S)-N^3-L-Alanyl-N^2-[N-[[(1S)-1-carboxy-4-hydroxyphenethyl]carbamoyl]-L-4-fluorophenylalanyl]-N^3-methyl-2,3-diaminobutyramido]-3′,5′-dideoxy-α-L-arabinofuranosyl]uracil] | 10 (≈ 12.7 µM) | >512 | 256 (≈ 326 µM) | 16 (≈ 20.4 µM) | 4 (≈ 5.1 µM) | 128 (≈ 163 µM) | >512 | >512 | 512 (≈ 652 µM) | <1 | <1 | 10 (≈ 12.7 µM) |  |  |  | 
6 | C[C@H](N)C(=O)N(C)[C@@H](C)[C@H](NC(=O)[C@H](Cc1ccccc1)NC(=O)N[C@@H](Cc1ccc(O)cc1)C(=O)O)C(=O)NC[C@H]1C[C@@H](O)[C@H](n2ccc(=O)[nH]c2=O)O1 [Compound 160] |  | >512 | 256 (≈ 334 µM) | 8 (≈ 10.4 µM) | 32 (≈ 41.7 µM) | 16 (≈ 20.9 µM) | >512 | 512 (≈ 668 µM) | 512 (≈ 668 µM) | <1 | 4 (≈ 5.22 µM) |  | 16 (≈ 20.9 µM) | 128 (≈ 167 µM) |  | 
7 | CC(N)C(=O)N(C)C(C)C(NC(=O)C(Cc1ccccc1)NC(=O)NC(Cc1c[nH]c2ccccc12)C(=O)O)C(=O)NCC1CC(O)C(n2ccc(=O)[nH]c2=O)O1 [Compound 164, 1-[5′-[(2S,3S)-N^3-L-Alanyl-N^2-[N-[[(1S)-1-carboxy-2-indol-3-ylethyl]carbamoyl]-L-phenylalanyl]-N^3-methyl-2,3-diaminobutyramido]-3′,5′-dideoxy-α-L-arabinofuranosyl]uracil] | 10 (≈ 12.7 µM) | 256 (≈ 324 µM) | 128 (≈ 162 µM) | 4 (≈ 5.06 µM) | 512 (≈ 648 µM) | 16 (≈ 20.3 µM) | 256 (≈ 324 µM) | 256 (≈ 324 µM) | 128 (≈ 162 µM) | <1 | 64 (≈ 81 µM) | 10 (≈ 12.7 µM) |  |  |  | 
8 | C[C@H](NC(=O)N[C@@H](Cc1c[nH]c2ccccc12)C(=O)O)C(=O)N[C@H](C(=O)N/C=C1/C[C@@H](O)[C@H](n2ccc(=O)[nH]c2=O)O1)[C@H](C)N(C)C(=O)[C@@H](N)Cc1cccc(O)c1 [Pacidamycin 4, reference compound] |  |  |  |  |  |  |  |  |  |  |  |  |  |  | >30 | >30
